Reference: ChEMBL document CHEMBL1201862, “PubChem BioAssay data set” (2004)
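The compound was tested at five concentrations on cells cultured in 96-well plates, with a 48-hour exposure period. Abbreviation: GI50, concentration required for 50% inhibition of growth.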 Active and inactive are the calls of the source. Cut-off read from the data, not from the text of the source: active = GI50 up to about 1.1 µM and inactive = higher.

Key:
Experiment in all cases: NCI anticancer screen, dose series, 48 h
OVCAR-8 = system: OVCAR-8
HOP-92 = system: HOP-92
HOP-62 = system: HOP-62
COLO 205 = system: COLO 205
786-0 = system: 786-0
NCI-H226 = system: NCI-H226
OVCAR-3 = system: OVCAR-3
SK-MEL-28 = system: SK-MEL-28
SNB-75 = system: SNB-75
HCT-15 = system: HCT-15
SN12C = system: SN12C
SW-620 = system: SW-620
HCC 2998 = system: HCC 2998
SNB-19 = system: SNB-19
KM12 = system: KM12
LOX IMVI = system: LOX IMVI
TK-10 = system: TK-10
Malme-3M = system: Malme-3M

Measured: GI50

CCOC(=O)N1CCc2cc(OC)c(OC)cc2/C1=C\c1ccc(OC)c(OC)c1
inactive: OVCAR-8 30.1 µM | HOP-92 15.8 µM | HOP-62 41.6 µM | COLO 205 21.6 µM | 786-0 19.9 µM | NCI-H226 23.4 µM | OVCAR-3 26 µM | SK-MEL-28 33.3 µM | SNB-75 27 µM | SN12C 26.4 µM | SW-620 32.7 µM | HCC 2998 33.3 µM | SNB-19 39.2 µM | KM12 29.6 µM | LOX IMVI 18.8 µM | TK-10 25.2 µM | Malme-3M 20.2 µM
31 µM: HCT-15

C/C(CC(=O)Nc1ccc(C)c(C)c1)=N\N(c1ccccc1)c1ccccc1
49 µM: HCT-15
inactive: OVCAR-8 > 100 µM | HOP-92 > 100 µM | HOP-62 > 100 µM | COLO 205 18.3 µM | 786-0 99.1 µM | NCI-H226 > 100 µM | OVCAR-3 > 100 µM | SK-MEL-28 68.1 µM | SNB-75 65.9 µM | SN12C 42.9 µM | HCC 2998 > 100 µM | SNB-19 > 100 µM | KM12 > 100 µM | LOX IMVI 36.1 µM | TK-10 > 100 µM | Malme-3M > 100 µM

CC(=O)OC1COC(n2c(=S)n(-c3ccccc3)c(=O)c3cc(Br)ccc32)C(OC(C)=O)C1OC(C)=O (stereo not drawn)
inactive: OVCAR-8 36.1 µM | HOP-92 19.5 µM | HOP-62 19.5 µM | COLO 205 > 100 µM | 786-0 34.1 µM | NCI-H226 83.4 µM | OVCAR-3 73.3 µM | SK-MEL-28 37.8 µM | SNB-75 7.11 µM | SN12C 71.1 µM | SW-620 > 100 µM | HCC 2998 > 100 µM | SNB-19 25.2 µM | KM12 > 100 µM | LOX IMVI 57.1 µM | Malme-3M 35.4 µM
> 100 µM: HCT-15

CCOC(=O)NN1C(=O)C(=P(c2ccccc2)(c2ccccc2)c2ccccc2)C(C(=O)OC)=C1C
> 100 µM: HCT-15
inactive: OVCAR-8 > 100 µM | HOP-92 > 100 µM | HOP-62 > 100 µM | COLO 205 > 100 µM | 786-0 > 100 µM | NCI-H226 > 100 µM | OVCAR-3 > 100 µM | SNB-75 > 100 µM | SN12C > 100 µM | SW-620 > 100 µM | HCC 2998 > 100 µM | SNB-19 > 100 µM | KM12 > 100 µM | LOX IMVI > 100 µM | TK-10 > 100 µM | Malme-3M > 100 µM

O=c1c2cc(Br)ccc2nc(CNc2ccccc2)n1-c1ccccc1
inactive: OVCAR-8 23.3 µM | HOP-92 19.1 µM | HOP-62 30.9 µM | COLO 205 17.4 µM | 786-0 14.6 µM | NCI-H226 18.5 µM | OVCAR-3 21.8 µM | SK-MEL-28 22.4 µM | SNB-75 20.5 µM | SN12C 14.1 µM | SW-620 12.7 µM | HCC 2998 19.5 µM | SNB-19 26.9 µM | KM12 26.7 µM | LOX IMVI 7.5 µM | TK-10 21.7 µM | Malme-3M 14.8 µM
16.7 µM: HCT-15

CC1(O)C(C)(O)C(C)(O)C1(C)O (stereo not drawn)
> 100 µM: HCT-15
inactive: OVCAR-8 > 100 µM | HOP-92 > 100 µM | HOP-62 > 100 µM | COLO 205 > 100 µM | 786-0 > 100 µM | NCI-H226 > 100 µM | OVCAR-3 > 100 µM | SK-MEL-28 > 100 µM | SNB-75 > 100 µM | SN12C > 100 µM | SW-620 > 100 µM | HCC 2998 > 100 µM | SNB-19 > 100 µM | KM12 > 100 µM | LOX IMVI > 100 µM | TK-10 > 100 µM | Malme-3M > 100 µM

CCCCN(CCCC)C(=O)C(=O)CC(=O)/C=C/c1ccccc1
> 100 µM: HCT-15
inactive: OVCAR-8 > 100 µM | HOP-92 > 100 µM | HOP-62 > 100 µM | COLO 205 > 100 µM | 786-0 > 100 µM | NCI-H226 > 100 µM | OVCAR-3 > 100 µM | SK-MEL-28 > 100 µM | SNB-75 > 100 µM | SN12C > 100 µM | SW-620 > 100 µM | HCC 2998 > 100 µM | SNB-19 > 100 µM | KM12 > 100 µM | LOX IMVI > 100 µM | TK-10 > 100 µM | Malme-3M > 100 µM

[N-]=[N+]=NC(c1cn(C2CC(O)C(CO)O2)c(=O)[nH]c1=O)C(Br)I (stereo not drawn)
inactive: OVCAR-8 > 100 µM | HOP-92 > 100 µM | HOP-62 > 100 µM | COLO 205 > 100 µM | 786-0 > 100 µM | NCI-H226 > 100 µM | OVCAR-3 > 100 µM | SK-MEL-28 > 100 µM | SNB-75 > 100 µM | SN12C > 100 µM | SW-620 > 100 µM | HCC 2998 > 100 µM | SNB-19 > 100 µM | KM12 > 100 µM | LOX IMVI > 100 µM | TK-10 > 100 µM | Malme-3M > 100 µM
> 100 µM: HCT-15

COc1ccc(C2=Nc3ccccc3SC(C)C2)cc1OC (stereo not drawn)
17.8 µM: HCT-15
inactive: OVCAR-8 22.8 µM | HOP-92 38.1 µM | COLO 205 20.4 µM | 786-0 16.3 µM | NCI-H226 20.4 µM | OVCAR-3 16.6 µM | SK-MEL-28 24.6 µM | SNB-75 14.3 µM | SN12C 20.3 µM | SW-620 5.66 µM | HCC 2998 18.6 µM | SNB-19 20.2 µM | KM12 16.8 µM | LOX IMVI 17.9 µM | TK-10 29.8 µM | Malme-3M 21.4 µM

CCOc1ccc(NC(=O)/C(=C\c2ccc(C)cc2)C(C)=O)cc1
inactive: OVCAR-8 > 100 µM | HOP-92 > 100 µM | HOP-62 > 100 µM | COLO 205 > 100 µM | 786-0 > 100 µM | NCI-H226 > 100 µM | OVCAR-3 > 100 µM | SK-MEL-28 > 100 µM | SNB-75 > 100 µM | SN12C > 100 µM | SW-620 > 100 µM | HCC 2998 > 100 µM | SNB-19 > 100 µM | LOX IMVI > 100 µM | TK-10 > 100 µM | Malme-3M > 100 µM
> 100 µM: HCT-15

CC1CC(=O)C2CC(CO)=CCCC2C1(C)CC/C(=C/CO)CO (stereo not drawn)
> 100 µM: HCT-15
inactive: OVCAR-8 > 100 µM | HOP-92 > 100 µM | COLO 205 > 100 µM | 786-0 > 100 µM | NCI-H226 > 100 µM | OVCAR-3 > 100 µM | SK-MEL-28 > 100 µM | SNB-75 > 100 µM | SN12C > 100 µM | SW-620 > 100 µM | HCC 2998 > 100 µM | KM12 > 100 µM | LOX IMVI > 10 µM | TK-10 > 100 µM | Malme-3M > 100 µM

C=C1C[C@]23C[C@@]1(O)CC[C@H]2[C@@]12C=C[C@H](O)[C@@](C)(C(=O)O1)[C@H]2[C@@H]3C(=O)O [GIBBERELLIN A3]
> 100 µM: HCT-15
inactive: HOP-92 > 100 µM | HOP-62 > 100 µM | COLO 205 > 100 µM | 786-0 > 100 µM | NCI-H226 > 100 µM | OVCAR-3 > 100 µM | SK-MEL-28 > 100 µM | SNB-75 > 100 µM | SN12C > 100 µM | SW-620 > 100 µM | HCC 2998 > 100 µM | SNB-19 > 100 µM | KM12 > 100 µM | LOX IMVI > 100 µM | TK-10 > 100 µM | Malme-3M > 100 µM
